19 molecules from patent publication US4743609A, “Indole derivatives having gastric and antisecretory and cytoprotective properties, and pharmaceutical preparations containing same” (Banyu Pharmaceutical Co., Ltd., priority 1985, dated 1988) can be followed below.

Structures are written as SMILES. Read-outs that look alike come from different tables or passages of the source.

A word on the IC50: it is the midpoint of a concentration-inhibition curve. As a reminder, the ED50 is the dose that gives a 50% effect, or the effect in half of the subjects.

Assay [1] deals with rabbit gastric glands. Put plainly: Inhibitory effects on aminopyrine uptake into gastric glands. The format is cell-based. Particulars: Oryctolagus cuniculus, 0.5 h, 37° C., 30 minutes, untreated control = 100%; for activity at 100 µM: 10^-4 M test compound; for activity at 10 µM: 10^-5 M test compound; for activity at 1 µM: 10^-6 M test compound. From the text: The production of gastric acid in the gastric mucosa is known to be performed by the parietal cells which are one kind of the cells constituting the gastric glands. The extent of the gastric acid secretion by the parietal cells has been deduced to be proportional to the rate of aminopyrine uptake into the gastric glands. Accordingly, the investigation of aminopyrine uptake into the gastric glands has been generally used as the indirect method for measuring the gastric acid secretion. Therefore, suspension of the rabbit gastric glands was prepared according to the method of Berglindh et al (see "Acta Physiol. Scand." 97, 401-414 (1976)). […] After this incubation, the reaction mixture obtained was centrifuged so that the gastric glands were spun down and separated from the incubation mixture. The gastric glands so collected were liophylized and the dry weight of the glands was measured. […] The so determined value of the radio-activity was assumed as the concentration or level of the aminopyrine uptaken into the gastric glands. According to the report of Berglindh et al (see "Acta Physiol. […] The radio-activity of the supernatant of the incubation mixture was determined in the same manner as above by the liquid scintillation counter, and the so determined value of the radio-activity of the supernatant was assumed to be the concentration or level of the aminopyrine present in the extraglandular water with the assumption that the so determined concentration of the aminopyrine in the supernatant was a measure of showing the quantity of the aminopyrine remaining not uptaken into gastric glands. Rate of aminopyrine uptake into gastric glands was calculated according to the following equation: [formula] The above experiment was repeated without the test compound as the Control test (untreated with test compound), and the rate of aminopyrine uptake as determined for this control test (untreated) was assumed to be 100%. The value (% of Control) was taken as showing the inhibitory effects of the test compound on the acid secretion. As a comparative drug, omeprazole was tested in the same way as above.

Assay [2] deals with T1, H^+,K^+ -ATPase (Oryctolagus cuniculus, UniProt P27112).
T1 construct: The rabbit gastric glands were homogenized and the microsomal fractions were prepared; from tissue; host or cells: rabbit gastric glands, light membrane fraction between 30% and 40% sucrose
In words: Inhibitory effects on the enzymatic activity of H^+,K^+ -ATPase. The format is biochemical, rabbit. Here is the method:
The rabbit gastric glands were homogenized and the microsomal fractions were prepared by differential centrifugation of the resultant homogenate. The microsomal fractions were layered on a linear continuous sucrose gradient ranging from 20 to 55% (W/V) sucrose and centrifuged to obtain the light membrane fractions sedimenting between 30% sucrose and 40% sucrose. The light membrane fractions containing the H^+,K^+ -ATPase so obtained were used to estimate the inhibitory effects of the new compound of this invention or omeprazole on the enzymatic activity of H^+,K^+ -ATPase. Test compounds were pre-incubated with the reaction mixture containing the enzyme (20-50 μg as protein) for 30 minutes at 37° C. After this, the enzymatic activity of the reaction mixture was determined by incubating for 20 minutes at 37° C. with the following reactant mixture comprising 10 mM MgCl2, 10 mM ATP disodium salt and 400 mM Tris-HCl (pH 7.3) with or without 50 mM KCl.

Assay [3] relates to gastric mucosa. Put plainly: Preventing the gastric ulcer induced by ethanol-hydrochloric acid (gastric cytoprotection). The format is in vivo, SD-strain rats. Particulars: Rattus norvegicus, po, rats; 30 minutes before 0.2N hydrochloric acid-50% aqueous ethanol; read-out: ED50 effective for 50% inhibition to the formation of necrotic lesions. Here is the method:
Thus, according to the method of Robert et al (see "Gastroenterology" 77, 433-443 (1979)), SD-strain rats (male, weighing 200 to 220 g, 8 rats in each group) were deprived of food for 24 hours and deprived of water for 19 hours. The rats were then administered orally with a suspension of the test compound in aqueous 0.5% carboxymethylcellulose solution at a dosage of 6, 10 or 20 mg/kg of the test compound. […] One hour after the administration of the ethanolic hydrochloric acid, the rats were killed. Their stomacks were dissected out, and the lower part of the esophagus was nipped with a clip. Aqueous 1% formalin solution (12.0 ml) was poured into the stomacks from duodenum and then the duodenal part was nipped by a clip. The whole stomacks were immersed in aqueous 1% formalin solution for about 10 minutes for the fixation, the pyloric stomacks were opened along the greater curvature and then rinsed with water. The gastric mucosa was examined and the necrotic lesions or errosions as formed in the glandular stomack and in the pylorus were examined under anatomic microscope to determine the length (in mm) of the lesions. From the test results obtained by the above procedure, the ED50 value of the tested compound effective for 50% inhibition to the formation of necrotic lesions was evaluated. Omeprazole as the comparative drug was tested in the same manner as above.

Assay [4] deals with gastric acid secretion. In words: Gastric acid antisecretory activity (tetragastrin-stimulated secretion). Particulars: for ED50: Rattus norvegicus, iv, anaesthetized rats, tetragastrin 5 μg/kg, read-out: ED50 effective for 50% inhibition of the gastric acid secretion. The format is in vivo, Donryu-strain rats. How it is done: The bilateral vagus nerves in the cervical region of the rats were surgically cut and cannulas were inserted into the pylorus and also into the esophagus, respectively, and tied in place according to the method of Ghosh and Schild (see "Brit. J. Pharmacol." 13, 54 (1958)). Aqueous 0.9% saline solution (pH 8.5) as warmed to 40° C. was passed through the […] cannula into the stomack at a rate of 1 ml/min. for the perfusion. The pH value of the effluent coming from the pyloral cannula was measured. At the stage when the pH value of said effluent became steady, 5 μg/kg of tetragastrin, a stimulant for the gastric acid secretion, was administered through a cannula which had been inserted into the cervical vein. After the administration of tetragastrin,the decreasing change of pH value in the effluent was measured at constant intervals of time. Subsequently, a solution of the test compound in methanol was intraveously administered to the rat, and 15 minutes later tetragastrin was again administered. From the test data of the pH measurements so obtained was evaluated the ED50 value of the tested compound effective for 50% inhibition of the gastric acid secretion.

Setting [5] is: pre-incubated 30 minutes at 37° C., pH 7.3, with or without 50 mM KCl, read-out: IC50 value required for 50% inhibition of the enzymatic activity.

T1 sequence (P27112 whole entry): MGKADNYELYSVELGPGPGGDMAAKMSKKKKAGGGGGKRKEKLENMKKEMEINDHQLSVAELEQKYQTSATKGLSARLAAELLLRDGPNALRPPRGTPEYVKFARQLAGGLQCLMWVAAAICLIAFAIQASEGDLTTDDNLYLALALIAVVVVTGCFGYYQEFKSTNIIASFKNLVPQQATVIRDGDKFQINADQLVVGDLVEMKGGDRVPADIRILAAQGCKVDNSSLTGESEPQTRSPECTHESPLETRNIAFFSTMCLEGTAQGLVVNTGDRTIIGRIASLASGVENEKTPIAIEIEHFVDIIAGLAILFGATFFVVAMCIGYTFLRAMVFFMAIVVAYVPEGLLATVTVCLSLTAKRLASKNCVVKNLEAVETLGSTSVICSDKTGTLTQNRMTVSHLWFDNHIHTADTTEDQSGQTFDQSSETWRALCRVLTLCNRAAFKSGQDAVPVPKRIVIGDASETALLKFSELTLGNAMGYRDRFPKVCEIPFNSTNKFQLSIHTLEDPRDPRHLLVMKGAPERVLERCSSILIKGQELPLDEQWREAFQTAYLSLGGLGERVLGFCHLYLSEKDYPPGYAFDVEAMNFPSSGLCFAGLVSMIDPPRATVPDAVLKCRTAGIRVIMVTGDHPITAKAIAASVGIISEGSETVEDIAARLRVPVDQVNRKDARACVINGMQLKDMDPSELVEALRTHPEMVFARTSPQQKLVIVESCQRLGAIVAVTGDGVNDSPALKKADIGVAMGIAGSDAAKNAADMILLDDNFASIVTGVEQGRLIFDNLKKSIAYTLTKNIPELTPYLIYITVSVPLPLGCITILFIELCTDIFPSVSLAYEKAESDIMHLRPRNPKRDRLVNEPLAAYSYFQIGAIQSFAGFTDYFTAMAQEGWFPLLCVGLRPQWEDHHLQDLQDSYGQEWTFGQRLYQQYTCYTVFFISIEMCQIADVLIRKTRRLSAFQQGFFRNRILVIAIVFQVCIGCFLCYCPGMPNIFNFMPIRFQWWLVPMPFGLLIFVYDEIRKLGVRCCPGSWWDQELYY
T1 sequence (P18597 whole entry partner): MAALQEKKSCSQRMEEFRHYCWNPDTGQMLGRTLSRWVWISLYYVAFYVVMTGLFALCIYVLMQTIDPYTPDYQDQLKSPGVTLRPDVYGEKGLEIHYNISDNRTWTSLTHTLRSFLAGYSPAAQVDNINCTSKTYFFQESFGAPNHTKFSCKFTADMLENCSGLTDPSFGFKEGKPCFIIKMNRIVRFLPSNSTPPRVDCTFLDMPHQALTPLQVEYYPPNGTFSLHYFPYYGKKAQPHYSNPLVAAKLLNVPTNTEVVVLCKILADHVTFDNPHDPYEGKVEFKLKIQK

With `Cc1cnc(CSc2cc3ccccc3[nH]2)cc1N1CCCCC1` [Example 1, 2-[(5-methyl-4-piperidino-2-pyridyl)methylthio]indole], in assay [1], the activity at 100 µM was 7%, the activity at 10 µM was 14% and the activity at 1 µM worked out at 44%. Further, in assay [2], the “H^+,K^+ -ATPase inhibition (in words)” value is on record as “H^+,K^+ -ATPase inhibitors”. The IC50 in assay [2] (setting [5]) is 50 µM. For the same molecule, the 50% effective dose (ED50) in assay [3] turned out to be 11.5 mg/kg. Moreover, the ED50 in assay [4] came out at 7.58 mg/kg. In addition, the “gastric acid antisecretory activity (in words)” value in assay [4] (rat, in vivo) is on record as “remarkedly milder than that of opeprazole”.
Consider `CN(C)c1ccnc(CSc2c[nH]c3ccccc23)c1` [Example 2, 3-[(4-dimethylamino-2-pyridyl)methylthio]indole], for which, in assay [1], the activity at 100 µM came to 24%, the activity at 10 µM amounted to 72% and the activity at 1 µM is 111%.
For `Cc1cnc(C[S+]([O-])c2cc3ccccc3[nH]2)cc1N1CCCCC1` (centres unmarked) [Example 3, 2-[(5-methyl-4-piperidino-2-pyridyl)methylsulfinyl]indole], in that order: 54%, 64% and 99%.
In the same order, the values of `Cc1cnc(CSc2cc3ccccc3n2C)cc1N1CCCCC1` [Example 4, 1-methyl-2-[(5-methyl-4-piperidino-2-pyridyl)methylthio]indole] are 7%, 8% and 50%.
As for `Cc1ccc2[nH]c(SCc3cc(N4CCCCC4)c(C)cn3)cc2c1` [Example 5, 5-methyl-2-[(5-methyl-4-piperidino-2-pyridyl)methylthio]indole], in assay [1], the activity at 100 µM is 11%, the activity at 10 µM amounted to 18% and the activity at 1 µM came out at 56%. Also, in assay [3], the ED50 is 8.59 mg/kg.
In the same order, the values of `Cc1cnc(CSc2cc3cc(F)ccc3[nH]2)cc1N1CCCCC1` [Example 6, 5-fluoro-2-[(5-methyl-4-piperidino-2-pyridyl)methylthio]indole] are 14%, 76%, 48% and 12.7 mg/kg.
As to `Cc1cnc(CSc2cc3cc(C(F)(F)F)ccc3[nH]2)cc1N1CCCCC1` [Example 7, 5-trifluoromethyl-2-[(5-methyl-4-piperidino-2-pyridyl)methylthio]indole], in assay [1], the activity at 100 µM stood at 14%, the activity at 10 µM was 17% and the activity at 1 µM was 55%. The ED50 in assay [3] came to 9.77 mg/kg.
As for `CCOC(=O)c1ccc2[nH]c(SCc3cc(N4CCCCC4)c(C)cn3)cc2c1` [Example 9, 5-ethoxycarbonyl-2-[(5-methyl-4-piperidino-2-pyridyl)methylthio]indole], in assay [1], the activity at 100 µM is 15%, the activity at 10 µM is 20% and the activity at 1 µM amounted to 61%.
As for `Cc1c(N2CCCCC2)ccnc1CSc1cc2ccccc2[nH]1` [Example 10, 2-[(3-methyl-4-piperidino-2-pyridyl)methylthio]indole], in assay [1], the activity at 100 µM was determined as 4%, the activity at 10 µM was determined as 19% and the activity at 1 µM was 71%.
In the same order, the values of `Cc1cnc(CSc2cc3ccccc3[nH]2)cc1N1CCOCC1` [Example 11, 2-[(5-methyl-4-morpholino-2-pyridyl)methylthio]indole] are 3%, 56% and 106%.
For `Cc1cnc(CSc2cc3ccccc3[nH]2)cc1N1CCCC1` [Example 12, 2-[(5-methyl-4-pyrrolidino-2-pyridyl)methylthio]indole], in that order: 10%, 11% and 48%.
`CN(C)c1ccnc(CSc2cc3ccccc3[nH]2)c1` [Example 13, 2-[(4-Dimethylamino-2-pyridyl)methylthio]indole]: in assay [1], the activity at 100 µM came to 3%, the activity at 10 µM amounted to 48% and the activity at 1 µM amounted to 118%. In addition, the “H^+,K^+ -ATPase inhibition (in words)” value in assay [2] is on record as “H^+,K^+ -ATPase inhibitors”. Also, the IC50 in assay [2] (setting [5]) was 700 µM. Besides, the ED50 in assay [3] came out at 9.17 mg/kg.
`COc1ccc2[nH]c(SCc3cc(N4CCCCC4)c(C)cn3)cc2c1` [Example 21, 5-methoxy-2-[(5-methyl-4-piperidino-2-pyridyl)methylthio]indole]: in assay [3], the ED50 was 14.6 mg/kg.
Same read-out and setting: under `c1ccc2[nH]c(SCc3cc(N4CCCCC4)ccn3)cc2c1` [Example 22, 2-[(4-piperidino-2-pyridyl)methylthio]indole] stands 8.13 mg/kg.
With `Clc1ccnc(CSc2c[nH]c3ccccc23)c1` [Example 37, 3-[(4-chloro-2-pyridyl)methylthio]indole], in assay [1], the activity at 100 µM stood at 95%, the activity at 10 µM was found to be 105% and the activity at 1 µM amounted to 114%.
On to `CCOC(=O)c1ccnc(CSc2c[nH]c3ccccc23)c1` [Example 38, 3-[(4-ethoxycarbonyl-2-pyridyl)methylthio]indole], for which, in assay [1], the activity at 100 µM was determined as 141%, the activity at 10 µM was found to be 103% and the activity at 1 µM was 120%.
In the same order, the values of `Oc1ccnc(CSc2c[nH]c3ccccc23)c1` [Example 39, 3-[(4-hydroxy-2-pyridyl)methylthio]indole] are 105%, 109% and 120%.
Take `Cc1cnc(CSc2c[nH]c3ccccc23)cc1N1CCCCC1` [Example 40, 3-[(5-methyl-4-piperidino-2-pyridyl)methylthio]indole]: the ED50 in assay [3] amounted to 2.84 mg/kg.
In the case of `COc1ccc2nc([S+]([O-])Cc3ncc(C)c(OC)c3C)[nH]c2c1` (centres unmarked) [Omeprazole, 2-[(3,5-dimethyl-4-methoxy-2-pyridyl)methylsulfinyl]-5-methoxybenzimidazole, reference compound], in assay [1], the activity at 100 µM was determined as 18%, the activity at 10 µM amounted to 25% and the activity at 1 µM was 34%. The 50% inhibitory concentration (IC50) in assay [2] was determined as 9.4 µM. In addition, in assay [3], the ED50 came out at 34.1 mg/kg. Also, the 50% effective dose (ED50) in assay [4] came out at 0.24 mg/kg.
